Source: PubChem BioAssay (NCI)
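Grown in 96-well plates, cells were treated for 48 hours with each compound at five concentrations. Insufficient inhibition: endpoint recorded as highest concentration tested. At the GI50, growth is halved. Definition used: TGI = concentration required for complete inhibition of growth.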

Assays:
Assay in all cases: inhibition of tumour cell growth, NCI panel, 48 h
OVCAR-3 ovarian = tested on: OVCAR-3 ovarian
SK-MEL-28 melanoma = tested on: SK-MEL-28 melanoma
SF-268 CNS = tested on: SF-268 CNS
SNB-75 CNS = tested on: SNB-75 CNS
OVCAR-5 ovarian = tested on: OVCAR-5 ovarian
T-47D breast = tested on: T-47D breast
NCI-H226 lung = tested on: NCI-H226 lung
HT29 colon = tested on: HT29 colon
PC-3 prostate = tested on: PC-3 prostate
SK-MEL-5 melanoma = tested on: SK-MEL-5 melanoma
U251 CNS = tested on: U251 CNS
HCT-116 colon = tested on: HCT-116 colon
OVCAR-4 ovarian = tested on: OVCAR-4 ovarian
HOP-62 NSCLC = tested on: HOP-62 NSCLC
BT-549 breast = tested on: BT-549 breast
MDA-MB-231 breast = tested on: MDA-MB-231 breast
786-0 renal = tested on: 786-0 renal
K-562 leukemia = tested on: K-562 leukemia
UO-31 renal = tested on: UO-31 renal
NCI-H460 lung = tested on: NCI-H460 lung
NCI-H522 lung = tested on: NCI-H522 lung
KM12 colon = tested on: KM12 colon
SF-295 CNS = tested on: SF-295 CNS
SF-539 CNS = tested on: SF-539 CNS
SN12C renal = tested on: SN12C renal
A498 renal = tested on: A498 renal
CAKI-1 renal = tested on: CAKI-1 renal
SK-OV-3 ovarian = tested on: SK-OV-3 ovarian
EKVX NSCLC = tested on: EKVX NSCLC
HCC-2998 colon = tested on: HCC-2998 colon
SNB-19 CNS = tested on: SNB-19 CNS
NCI/ADR-RES ovarian = tested on: NCI/ADR-RES ovarian
A549 NSCLC = tested on: A549 NSCLC
RXF 393 renal = tested on: RXF 393 renal
MDA-MB-435 = tested on: MDA-MB-435
TK-10 renal = tested on: TK-10 renal
CCRF-CEM leukemia = tested on: CCRF-CEM leukemia
HL-60(TB) leukemia = tested on: HL-60(TB) leukemia
HCT-15 colon = tested on: HCT-15 colon
SK-MEL-2 melanoma = tested on: SK-MEL-2 melanoma
M14 melanoma = tested on: M14 melanoma
NCI-H23 lung = tested on: NCI-H23 lung
DU-145 prostate = tested on: DU-145 prostate
MOLT-4 leukemia = tested on: MOLT-4 leukemia
HS 578T breast = tested on: HS 578T breast
MALME-3M melanoma = tested on: MALME-3M melanoma
UACC-62 melanoma = tested on: UACC-62 melanoma
UACC-257 melanoma = tested on: UACC-257 melanoma
ACHN renal = tested on: ACHN renal
HOP-92 NSCLC = tested on: HOP-92 NSCLC
IGROV1 ovarian = tested on: IGROV1 ovarian
SR leukemia = tested on: SR leukemia
MCF7 breast = tested on: MCF7 breast
SW-620 colon = tested on: SW-620 colon
OVCAR-8 ovarian = tested on: OVCAR-8 ovarian
LOX IMVI melanoma = tested on: LOX IMVI melanoma
RPMI-8226 leukemia = tested on: RPMI-8226 leukemia
COLO 205 colon = tested on: COLO 205 colon

`O=C(Nc1ccc(-n2ccc3c(NC(=O)c4ccccc4)ncnc32)cc1)c1ccc(Cl)c(C(F)(F)F)c1` was tested, and the GI50 (OVCAR-3 ovarian) was 3.44 µM, the TGI (OVCAR-3 ovarian) was 9.37 µM and the GI50 (SK-MEL-28 melanoma) was 4.9 µM. For the same compound, the TGI (SK-MEL-28 melanoma) was 15.3 µM, the GI50 (SF-268 CNS) was 2.17 µM and the TGI (SF-268 CNS) was 15.2 µM. It also gave a GI50 (SNB-75 CNS) of 1.55 µM, a TGI (SNB-75 CNS) of 11.4 µM and a GI50 (OVCAR-5 ovarian) of 3.87 µM. The TGI (OVCAR-5 ovarian) was 22.5 µM, the GI50 (T-47D breast) was 2.9 µM and the TGI (T-47D breast) was 13.8 µM. It also gave a GI50 (NCI-H226 lung) of 6.58 µM, a TGI (NCI-H226 lung) of 25.1 µM and a GI50 (HT29 colon) of 0.752 µM. The TGI (HT29 colon) was 6.16 µM, the GI50 (PC-3 prostate) was 3.57 µM and the TGI (PC-3 prostate) was 14.7 µM. For the same compound, the GI50 (SK-MEL-5 melanoma) was 0.603 µM, the TGI (SK-MEL-5 melanoma) was 15.1 µM and the GI50 (U251 CNS) was 0.462 µM. It also gave a TGI (U251 CNS) of 5.75 µM, a GI50 (HCT-116 colon) of 0.536 µM and a TGI (HCT-116 colon) of 7.26 µM. The GI50 (OVCAR-4 ovarian) was 2.63 µM, the TGI (OVCAR-4 ovarian) was 9.42 µM and the GI50 (HOP-62 NSCLC) was 3.45 µM. The TGI (HOP-62 NSCLC) was 11.2 µM, the GI50 (BT-549 breast) was 15.1 µM and the TGI (BT-549 breast) was 48.8 µM. The GI50 (MDA-MB-231 breast) was 1.93 µM, the TGI (MDA-MB-231 breast) was 11.5 µM and the GI50 (786-0 renal) was 5.02 µM. The TGI (786-0 renal) was 23.6 µM, the GI50 (K-562 leukemia) was 0.42 µM and the TGI (K-562 leukemia) was over 35 µM. For the same compound, the GI50 (UO-31 renal) was 7.13 µM, the TGI (UO-31 renal) was 23.7 µM and the GI50 (NCI-H460 lung) was 0.204 µM. For the same compound, the TGI (NCI-H460 lung) was 4.8 µM, the GI50 (NCI-H522 lung) was 3.02 µM and the TGI (NCI-H522 lung) was 13.3 µM. For the same compound, the GI50 (KM12 colon) was 0.939 µM, the TGI (KM12 colon) was 7.71 µM and the GI50 (SF-295 CNS) was 1.91 µM. It also gave a TGI (SF-295 CNS) of 20 µM, a GI50 (SF-539 CNS) of 3.63 µM and a TGI (SF-539 CNS) of over 54.7 µM. The GI50 (SN12C renal) was 3.8 µM, the TGI (SN12C renal) was 16.5 µM and the GI50 (A498 renal) was 13 µM. The TGI (A498 renal) was 29.4 µM, the GI50 (CAKI-1 renal) was 0.83 µM and the TGI (CAKI-1 renal) was 11.1 µM. For the same compound, the GI50 (SK-OV-3 ovarian) was 11.1 µM, the TGI (SK-OV-3 ovarian) was 25.5 µM and the GI50 (EKVX NSCLC) was 5.66 µM. For the same compound, the TGI (EKVX NSCLC) was 25.4 µM, the GI50 (HCC-2998 colon) was 4.5 µM and the TGI (HCC-2998 colon) was 23.5 µM. The GI50 (SNB-19 CNS) was 4.21 µM, the TGI (SNB-19 CNS) was 17.8 µM and the GI50 (NCI/ADR-RES ovarian) was 3.1 µM. It also gave a TGI (NCI/ADR-RES ovarian) of 23.5 µM, a GI50 (A549 NSCLC) of 1.84 µM and a TGI (A549 NSCLC) of 12.6 µM. The GI50 (RXF 393 renal) was 4.74 µM, the TGI (RXF 393 renal) was 15.4 µM and the GI50 (MDA-MB-435) was 2.12 µM. For the same compound, the TGI (MDA-MB-435) was 10.3 µM, the GI50 (TK-10 renal) was 5.17 µM and the TGI (TK-10 renal) was 12.9 µM. The GI50 (CCRF-CEM leukemia) was 0.849 µM, the TGI (CCRF-CEM leukemia) was 18.2 µM and the GI50 (HL-60(TB) leukemia) was 4.99 µM. For the same compound, the TGI (HL-60(TB) leukemia) was over 52.8 µM, the GI50 (HCT-15 colon) was 0.116 µM and the TGI (HCT-15 colon) was 6.77 µM. The GI50 (SK-MEL-2 melanoma) was 2.36 µM, the TGI (SK-MEL-2 melanoma) was 8.68 µM and the GI50 (M14 melanoma) was 1.37 µM. The TGI (M14 melanoma) was 9.47 µM, the GI50 (NCI-H23 lung) was 13.1 µM and the TGI (NCI-H23 lung) was 40.7 µM. For the same compound, the GI50 (DU-145 prostate) was 1.48 µM, the TGI (DU-145 prostate) was 8.46 µM and the GI50 (MOLT-4 leukemia) was 1.38 µM. The TGI (MOLT-4 leukemia) was over 32 µM, the GI50 (HS 578T breast) was 4.96 µM and the TGI (HS 578T breast) was 15.6 µM. For the same compound, the GI50 (MALME-3M melanoma) was 6.41 µM, the TGI (MALME-3M melanoma) was 21.2 µM and the GI50 (UACC-62 melanoma) was 0.947 µM. For the same compound, the TGI (UACC-62 melanoma) was 12.2 µM, the GI50 (UACC-257 melanoma) was 5.17 µM and the TGI (UACC-257 melanoma) was 24.5 µM. For the same compound, the GI50 (ACHN renal) was 1.28 µM, the TGI (ACHN renal) was 15.2 µM and the GI50 (HOP-92 NSCLC) was 8.16 µM. For the same compound, the TGI (HOP-92 NSCLC) was 25.7 µM, the GI50 (IGROV1 ovarian) was 5.81 µM and the TGI (IGROV1 ovarian) was 31 µM. The GI50 (SR leukemia) was 0.145 µM, the TGI (SR leukemia) was over 20.1 µM and the GI50 (MCF7 breast) was 1.91 µM. The TGI (MCF7 breast) was 15.6 µM, the GI50 (SW-620 colon) was 1.29 µM and the TGI (SW-620 colon) was 6.21 µM. For the same compound, the GI50 (OVCAR-8 ovarian) was 2.1 µM, the GI50 (LOX IMVI melanoma) was 0.321 µM and the TGI (LOX IMVI melanoma) was 3.71 µM. For the same compound, the GI50 (RPMI-8226 leukemia) was 1.63 µM, the TGI (RPMI-8226 leukemia) was 29 µM and the GI50 (COLO 205 colon) was 2.46 µM. The TGI (COLO 205 colon) was 17.2 µM.
